Test results: patent publication EP0449955B1, “SYNTHETIC HIV-LIKE PEPTIDES, THEIR COMPOSITIONS AND USES” (CLARITY TECHNOLOGIES INCORPORATED, priority 1988, dated 1996)

Tested on: antibodies to HIV-2
Assay: EIA of HIV-2 peptide-BSA conjugates with macaque sera
Assay type: binding
Details: macaque sera containing or not containing antibodies to HIV-2, Figure 7
Method: The synthetic peptides of Figures 1-8 were reduced with 10mM DTT, or with immobilized DTT (Reductacryl, Calbiochem, San Diego, California, U.S.A., 10 mg Reductacryl per mg peptide) overnight at 4°C, pH8 in 10mM borate or other buffers depending upon peptide solubility, with gentle mixing. KLH was dissolved at a concentration of 10-30 mg/ml in 10 mM phosphate buffer pH 7.2., and BSA was dissolved at a concentration of 20-80 mg/ml for treatment with heterobifunctional linkers MBS (m-Maleimidobenzoyl-N-hydroxysuccinimide ester), SPDP [N-Succinimidyl 3-(2 pyridyldithio)propionate], or Sulfo-SMCC [Sulfo-Succinimidyl 4(N-maleimidomethyl)-cyclohexane-1-carboxylate]. The heterobifunctional linkers were added to the protein solutions in a molar excess of linker to BSA of 100, or of linker to KLH of 1000. MBS was dissolved in DMF at 10mg/ml, SPDP was dissolved in absolute ethanol at 10mg/ml and each of these was added dropwise with mixing into the protein solution, whereas the Sulfo-SMCC dry powder was dissolved into the protein solution. Each protein-linker mixture was reacted at room temperature for 15 minutes to 1 hour and then free linker was separated from BSA-linker or KLH-linker by gel chromatography with Sephadex G25 using 50mM phosphate, pH 6 for KLH-MBS, 10mM acetate, 100 mM Nacl, pH 4.6 for BSA-SPDP, or 100 mM phosphate, 1 mM EDTA, pH 6.5 for BSA-SMCC. The reduced peptides were separated from DTT by Sephadex G10 column chromatography when soluble DTT was used, or by centrifugation followed by filtration through a 0.22 micron filter when Reductacryl was used. Reduced peptides were combined with linker treated KLH or BSA in molar ratios of 100-1000 peptide/KLH-MBS, 1-50 peptide/BSA-SMCC, and 0.1-10 peptide/BSA-SPDP. Each reduced peptide was added to the linker-treated protein with mixing, overlayed with N₂, and then mixed gently at room temperature for one hour, and then overnight at 4°C. The SMCC-BSA conjugates were further treated with a 1 mM final concentration of mercaptoethylamine for 4 hours, and then dialyzed overnight against 100 volumes of buffer (20mM phosphate, 1 mM EDTA, 0.05% sodium azide, pH 6.5) at 4°C. All other conjugates were adjusted to a final concentration of sodium azide of 0.05%. Optimal molar ratios of peptide/protein for the conjugates were determined by solubility and antigenicity (as evaluated by EIA).
The free peptides or peptide-protein conjugates of Figures 1-13 were initially screened for immunoreactivity by coating each well of polystyrene microtiter EIA plates (Costar, Cambridge, Massachusetts, U.S.A.) with 0.2 ml amounts of concentrations of 5-50 micrograms/ml peptide in Tris buffer, 10 mM, pH 8.0, at 4°C overnight. […]

ARLNSWGCAFRQVCHGC [2S25]
discrimination of positive from negative samples: most favorable performances
